Assay results as given in patent US9624175B2, “Fused-bicyclic aryl quinolinone derivatives as mutant-isocitrate dehydrogenase inhibitors” (Forma Therapeutics, Inc., priority 2015, dated 2017).

Legend:
[1] = molecular target: IDH1-R132C recombinant protein (Homo sapiens (Human), UniProt O75874, R132C); test: IDH1-R132C enzymatic assay (NADPH consumption, diaphorase/resazurin readout); assay type: biochemical; details: inhibition of NADPH consumption, 10 nM IDH1-R132C; read-out: Enzyme IDH1 R132C IC50
Chain of IDH1-R132C recombinant protein (O75874 whole entry R132C): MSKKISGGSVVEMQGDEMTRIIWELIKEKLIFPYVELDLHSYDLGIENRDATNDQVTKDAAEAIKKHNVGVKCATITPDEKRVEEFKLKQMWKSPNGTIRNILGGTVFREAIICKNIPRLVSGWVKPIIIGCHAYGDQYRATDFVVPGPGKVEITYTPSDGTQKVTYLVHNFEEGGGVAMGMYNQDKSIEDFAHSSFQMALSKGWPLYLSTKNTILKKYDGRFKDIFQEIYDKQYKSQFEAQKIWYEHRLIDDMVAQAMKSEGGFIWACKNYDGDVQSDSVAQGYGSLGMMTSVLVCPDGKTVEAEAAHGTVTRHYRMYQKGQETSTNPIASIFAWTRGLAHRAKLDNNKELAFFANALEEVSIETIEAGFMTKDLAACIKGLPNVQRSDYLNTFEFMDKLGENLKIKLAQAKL
Protocol: (§1) Assays were performed in a 384-well black plate. An aliquot of 250 nL of compound was incubated with 10 μL of 30 nM IDH1-R132H or 10 nM IDH1-R132C recombinant protein in assay buffer (50 mM Tris pH=7.5, 150 mM NaCl, 5 mM MgCl2, 0.1% (w/v) Bovine Serum Albumin, and 0.01% Triton X-100) in each well at 25° C. for 15 minutes. After the plate was centrifuged briefly, an aliquot of 10 μL of 2 mM α-ketoglutarate and 20 μM NADPH solution prepared in assay buffer was then added to each well and the reaction was maintained at 25° C. for 45 minutes. An aliquot of 10 μL of diaphorase solution (0.15 U/mL diaphorase and 30 μM Resazurin in assay buffer) was added to each well. The plate was maintained at 25° C. for 15 minutes and then read on a plate reader with excitation and emission wavelengths at 535 nm and 590 nm, respectively. The IC50 of a given compound was calculated by fitting the dose response curve of inhibition of NADPH consumption at a given concentration with the four parameter logistic equation.

[2] = molecular target: IDH1-R132H recombinant protein (Homo sapiens (Human), UniProt O75874, R132H); test: IDH1-R132H enzymatic assay (NADPH consumption, diaphorase/resazurin readout); assay type: biochemical; details: inhibition of NADPH consumption, 30 nM IDH1-R132H; read-out: Enzyme IDH1 R132H IC50
Chain of IDH1-R132H recombinant protein (O75874 whole entry R132H): as the sequence (O75874 whole entry R132C) above, with C132H counted along it
Protocol: as §1

IC50 [1] [µM] | IC50 [2] [µM] | Compound
0.1 to 1 | < 0.1 | C[C@H](Nc1ncc2c(n1)NC(=O)OC2)c1cc2cc(Cl)ccc2[nH]c1=O [Compound I-49, 6-chloro-3-[(1S)-1-({2-oxo-1H,2H,4H-pyrimido[4,5-d][1,3]oxazin-7-yl}amino)ethyl]-1,2-dihydroquinolin-2-one]
0.1 to 1 | < 0.1 | C[C@H](Nc1ncc2oc(=O)[nH]c2n1)c1cc2cc(Cl)ccc2[nH]c1=O [Compound I-56, 6-chloro-3-[(1S)-1-({2-oxo-2H,3H-[1,3]oxazolo[4,5-d]pyrimidin-5-yl}amino)ethyl]-1,2-dihydroquinolin-2-one]
0.1 to 1 | < 0.1 | C[C@H](Nc1ncc2oc(=O)n(C)c2n1)c1cc2cc(Cl)ccc2[nH]c1=O [Compound I-57, 6-chloro-3-[(1S)-1-({3-methyl-2-oxo-2H,3H-[1,3]oxazolo[4,5-d]pyrimidin-5-yl}amino)ethyl]-1,2-dihydroquinolin-2-one]
1 to 10 | 0.1 to 1 | C[C@H](Nc1ncc2[nH]c(=O)n(C)c2n1)c1cc2cc(Cl)ccc2[nH]c1=O [Compound I-58, 6-chloro-3-[(1S)-1-[(9-methyl-8-oxo-8,9-dihydro-7H-purin-2-yl)amino]ethyl]-1,2-dihydroquinolin-2-one]
1 to 10 | 1 to 10 | C[C@H](Nc1ncc2[nH]c(=O)[nH]c2n1)c1cc2cc(Cl)ccc2[nH]c1=O [Compound I-59, 6-chloro-3-[(1S)-1-[(8-oxo-8,9-dihydro-7H-purin-2-yl)amino]ethyl]-1,2-dihydroquinolin-2-one]
1 to 10 | 0.1 to 1 | C[C@H](Nc1ncc2c(n1)NC(=O)C2)c1cc2cc(Cl)ccc2[nH]c1=O [Compound I-60, 6-chloro-3-[(1S)-1-({6-oxo-5H,6H,7H-pyrrolo[2,3-d]pyrimidin-2-yl}amino)ethyl]-1,2-dihydroquinolin-2-one]

Further lines, the compound ahead of its results:

Compound | IC50 [1] [µM] | IC50 [2] [µM]
CC(C)CN1C(=O)OCc2cnc(N[C@@H](C)c3cc4cc(Cl)ccc4[nH]c3=O)nc21 [Compound I-46, 6-chloro-3-[(1S)-1-{[1-(2-methylpropyl)-2-oxo-1H,2H,4H-pyrimido[4,5-d][1,3]oxazin-7-yl]amino}ethyl]-1,2-dihydroquinolin-2-one] | < 0.1 | < 0.1
C[C@H](Nc1ncc2c(n1)N(C)C(=O)OC2)c1cc2cc(Cl)ccc2[nH]c1=O [Compound I-47, 6-chloro-3-[(1S)-1-({1-methyl-2-oxo-1H,2H,4H-pyrimido[4,5-d][1,3]oxazin-7-yl}amino)ethyl]-1,2-dihydroquinolin-2-one] | < 0.1 | < 0.1
C[C@H](Nc1ncc2c(n1)N(C)C(=O)OC2)c1cc2cc(Cl)c(OCc3ccccn3)cc2[nH]c1=O [Compound I-48, 6-chloro-3-[(1S)-1-({1-methyl-2-oxo-1H,2H,4H-pyrimido[4,5-d][1,3]oxazin-7-yl}amino)ethyl]-7-(pyridin-2-ylmethoxy)-1,2-dihydroquinolin-2-one] | < 0.1 | < 0.1
COc1cc2[nH]c(=O)c([C@H](C)Nc3ncc4c(n3)N(C)C(=O)OC4)cc2cc1Cl [Compound I-51, 6-chloro-7-methoxy-3-[(1S)-1-({1-methyl-2-oxo-1H,2H,4H-pyrimido[4,5-d][1,3]oxazin-7-yl}amino)ethyl]-1,2-dihydroquinolin-2-one] | < 0.1 | < 0.1
COc1cc2[nH]c(=O)c([C@@H](C)Nc3ncc4c(n3)N(C)C(=O)OC4)cc2cc1Cl [Compound I-52, 6-chloro-7-methoxy-3-[(1R)-1-({1-methyl-2-oxo-1H,2H,4H-pyrimido[4,5-d][1,3]oxazin-7-yl}amino)ethyl]-1,2-dihydroquinolin-2-one] | 1 to 10 | 0.1 to 1
C[C@@H](Nc1ncc2c(n1)N(C)C(=O)OC2)c1cc2cc(Cl)c(F)cc2[nH]c1=O [Compound I-53, 6-chloro-7-fluoro-3-[(1R)-1-({1-methyl-2-oxo-1H,2H,4H-pyrimido[4,5-d][1,3]oxazin-7-yl}amino)ethyl]-1,2-dihydroquinolin-2-one] | > 10 | 1 to 10
CC(C)Cn1c(=O)oc2cnc(N[C@@H](C)c3cc4cc(Cl)ccc4[nH]c3=O)nc21 [Compound I-55, 6-chloro-3-[(1S)-1-{[3-(2-methylpropyl)-2-oxo-2H,3H-[1,3]oxazolo[4,5-d]pyrimidin-5-yl]amino}ethyl]-1,2-dihydroquinolin-2-one] | < 0.1 | < 0.1
C[C@H](Nc1ncc2c(n1)N(C)C(=O)C2)c1cc2cc(Cl)ccc2[nH]c1=O [Compound I-61, 6-chloro-3-[(1S)-1-({7-methyl-6-oxo-5H,6H,7H-pyrrolo[2,3-d]pyrimidin-2-yl}amino)ethyl]-1,2-dihydroquinolin-2-one] | 0.1 to 1 | 0.1 to 1
C[C@H](Nc1ncc2c(n1)NC(=O)CC2)c1cc2cc(Cl)ccc2[nH]c1=O [Compound I-62, 6-chloro-3-[(1S)-1-({7-oxo-5H,6H,7H,8H-pyrido[2,3-d]pyrimidin-2-yl}amino)ethyl]-1,2-dihydroquinolin-2-one] | 1 to 10 | 1 to 10
